Measured values as given in US20260218121A1, “METHODS FOR CELL SURFACE REMODELING” (NANTES UNIVERSITÉ, priority 2023, published 2026).

Assays:
[1] = Ruben et al., biomacromolecules, 2019, 20, 2726; cited from earlier work
DC2.4 cells = assay: Viability by live and dead assay (electro-bioconjugation or glyco-engineering); details: glyco-engineering (comparative), concentration of 250 μM, 72 h

CC(=O)OC[C@H]1OC(OC(C)=O)[C@@H](NC(=O)CN=[N+]=[N-])[C@@H](OC(C)=O)[C@@H]1OC(C)=O (some centres unmarked) [Ac4ManNAz]
concentration that can be used [1]: ≤ 100 µM | viability (DC2.4 cells): 30%
